Laboratory results published in patent US20060178342A1, “Hyaluronan as a cytotoxic agent, drug pre-sensitizer and chemo-sensitizer in the treatment of disease” (priority 2001, published 2006).
Where a name gives a salt, the structure may show the parent alone.

Tests used:
[1] = 6-week study: treatment toxicity (body mass, blood, organ mass, survival); details: 30 mg/kg 5-FU
[2] = test system: Human LIM1215 colon cancer xenografts; assay: 14-week efficacy study, irinotecan ± HA in colon cancer xenografts; format: in vivo, mouse; details: 50 mg/kg weekly; listed as irinotecan, hydrochloride
Excerpt: Human LIM1215 colon cancer xenografts were inoculated into the mammary fat pad of athymic […] nude mice. Mice were randomly distributed into eight treatment groups (8 mice per group).
The treatment regime comprised of injections on Day 1 of a 7-day cycle for duration of fourteen weeks. Primary tumor volume, animal body mass, energy levels and food consumption were monitored three times weekly.
Athymic CBA/WEHI nude female mice (Walter and Eliza Hall Research Institute, Melbourne, Australia), 6 to 8 weeks old, were maintained under specific pathogen-free conditions, with sterilized food and water available ad libitum. Each mouse received one injection containing 1×10^7 cells in 50-100 μl. […]
Any animals with a tumor volume expressed as a percentage of body weight outside 0.25±0.10 (mean±1 SD) were excluded from data analysis. […]
The experimental end-point for each animal occurred either when the animal had to be euthanized due to a high degree of disease progression or when the 14-week study had been completed. The animals were monitored three times weekly and the following criteria were established to determine whether an animal had reached the experimental end point: tumour mass is greater than 10% of the animals total body mass; the animal is metabolically stressed (i.e. losing weight); or the animal is immobilized.

[3] = In vivo toxicology, daily iv Camptosar or HyCAMP; details: for immediate neurological toxicity, early or late on-set diarrhea: Camptosar or HyCAMP; for LD50: iv
[4] = test system: LIM 1215; assay: Drug cytotoxicity assay, Camptosar ± 100 nM hyaluronan; format: cell-based; details: Homo sapiens, LIM1215; 48 hours continuous exposure; HyCAMP = Camptosar + 100 nM hyaluronan
Excerpt: (§1) Human Colon Carcinoma Cell Lines HT-29, HCT-116, SK-CO-1, SW620, SW1222 were obtained from the Peter MacCallum, Cancer Institute, Melbourne. […] Human colon carcinoma cell lines 1215 and LIM2099 were kindly donated by Dr R Whitehead, Ludwig Institute, Melbourne. […] The various concentrations of Camptosar were achieved by diluting in the appropriate amount of growth media The HCT-116, HT-29, SK-CO-1, LIM1215, LIM2099, SW620 and SW1222 cell lines were routinely grown to 80% confluency. The cells were removed from the culture flask and counted using the haematocytometer. The cells HT-29, HCT-116, SK-CO-1, SW620 and SW1222 were resuspended to 15,000 cells/ml of cell-specific media. The LIM1215 and LIM2099 were resuspended to 30,000 cells/ml of cell-specific media. The cells were plated into 48 well culture plates (1 cm^2 surface area) by adding 1 ml of cell suspension per well. The cells were allowed to attach overnight prior to exposure to the test media. The cells were continuously exposed to the following concentrations of test media: 0 μg/ml, 0.25 μg/ml, 0.5 μg/ml, 1 μg/ml, 5 μg/ml, 25 μg/ml and 50 μg/ml Camptosar±100 nM hyaluronan (Modal Mw 850,000). The cells were continuously incubated with the test media for 48 hours. On the day of analysis, the cells were washed with Hanks Balanced Salt Solution. Subsequently, the cells were removed by trypsinization with 0.25% trypsin/EDTA. An aliquot of the trypsinized cell suspension was counted by the Coulter Counter. The raw duplicate or triplicate counts per well were obtained from the Z2 coulter counter. The counts will be averaged and will be expressed as percentage of no drug control.

[5] = test system: HT-29; assay: as above; format: cell-based; details: Homo sapiens, 48 hours continuous exposure, HyCAMP = Camptosar + 100 nM hyaluronan
Excerpt: as §1

[6] = test system: LIM 2099; assay: as above; format: cell-based; details: Homo sapiens; 48 hours continuous exposure; HyCAMP = Camptosar + 100 nM hyaluronan
Excerpt: as §1

[7] = test system: SW1222; assay: as above; format: cell-based; details: Homo sapiens, 48 hours continuous exposure, HyCAMP = Camptosar + 100 nM hyaluronan
Excerpt: as §1

[8] = test system: SW 620; assay: as above; format: cell-based; details: Homo sapiens, 48 hours continuous exposure, HyCAMP = Camptosar + 100 nM hyaluronan
Excerpt: as §1

[9] = test system: HCT-116; assay: as above; format: cell-based; details: Homo sapiens, 48 hours continuous exposure, HyCAMP = Camptosar + 100 nM hyaluronan
Excerpt: as §1

[10] = test system: SK-CO-1; assay: as above; format: cell-based; details: Homo sapiens, 48 hours continuous exposure, HyCAMP = Camptosar + 100 nM hyaluronan
Excerpt: as §1

[11] = 14-week study: treatment toxicity and weight; details: 50 mg/kg weekly
[12] = substance implied by list of adriamycin groups; cited from earlier work
[13] = test system: human breast cancer cells; assay: Breast cancer cell count assay, cell line not specified or pooled; format: cell-based; details: Homo sapiens; cell line not stated; read-out: IC50 of adriamycin
Experimental: The cell suspensions were counted with an automated cell counter (ZM-2 Coulter Counter) by adding 15 mL saline+0.2 ml of cell suspension. • Cells were resuspended to a number of: […] The cell suspensions were counted with an automated cell counter (ZM-2 Coulter Counter) by adding 15 mL saline+0.2 ml of cell suspension. Results were expressed as % of no drug control which was calculated as: […]

O=c1[nH]cc(F)c(=O)[nH]1 [5-FU, 5-fluorouracil, reference compound]
shrinkage of the uterus [1]: 22% | enlarged spleen, increase in mass ([1]; vs saline group): 61%

CCc1c2c(nc3ccc(OC(=O)N4CCC(N5CCCCC5)CC4)cc13)-c1cc3c(c(=O)n1C2)COC(=O)[C@]3(O)CC [Camptosar, irinotecan hydrochloride]
population survival to the end of the 14-week study [2]: approximately 57% | accumulative dose received without severe adverse effects ([3]; 25 mg/kg daily iv): 350 mg/kg | body weight lost compared to HyCAMP group ([3]; 25 mg/kg daily iv): 18% | survival time ([3]; 25 mg/kg daily iv (HyCAMP: + 13.3 mg/kg HA)): 14 days | immediate neurological toxicity, early or late on-set diarrhea ([3]; 25 mg/kg daily iv): did not exhibit any immediate neurological toxicity, early or late on-set diarrhea | survival time ([3]; 50 mg/kg daily iv): ≤ 12 days | immediate neurological toxicity, early or late on-set diarrhea ([3]; 50 mg/kg daily iv): did not exhibit any immediate neurological toxicity, early or late on-set diarrhea | diarrhea grade ([3]; 100 mg/kg daily iv): 2-3 Grade | survival time ([3]; 100 mg/kg daily iv): ≤ 7 days | onset of neurological effects after injection ([3]; 100 mg/kg iv): 30 seconds | time to fully recuperate from neurological effects ([3]; 100 mg/kg iv): 5 h | onset of neurological effects after injection ([3]; 150 mg/kg iv): 30 seconds | recuperation from neurological effects ([3]; 150 mg/kg iv): did not recuperate | onset of neurological effects after injection ([3]; 200 mg/kg iv): 30 seconds | recuperation from neurological effects ([3]; 200 mg/kg iv): did not recuperate | organ mass compared to HyCAMP treatment group ([3]; 50-100 mg/kg): significant increase in the mass of the stomach, lungs, spleen and brain | LD50 at 14 days ([3]; male, F1 CBAXC57 (out-bred), mouse, in vivo, intravenous): 475 to 550 mg/kg | LD50 ([3]; male, F1 CBAXC57 (out-bred), mouse, in vivo, 50 mg/kg): 475 mg/kg | LD50 ([3]; male, F1 CBAXC57 (out-bred), mouse, in vivo, 100 mg/kg): 550 mg/kg | lethal dose ([3]; single bolus iv): > 100 mg/kg | IC50 [4]: 16 µM | IC50 [5]: 16 µM | IC50 [6]: 31 µM | IC50 [7]: 32 µM | IC50 [8]: 10 µM | IC50 [9]: 1.5 µM | IC50 [10]: 5 µM | degree of observed weight loss, irinotecan vs HyCAMP groups [11]: comparable

COc1cccc2c1C(=O)c1c(O)c3c(c(O)c1C2=O)C[C@@](O)(C(=O)CO)C[C@@H]3O[C@H]1C[C@H](N)[C@H](O)[C@H](C)O1 [adriamycin, doxorubicin, reference compound]
Mouse LD50 [12]: 10 mg/kg | IC50 [13]: 0.09 µM
